For series [1], the system named is Staphylococcus aureus. Kind of series: MIC by broth-dilution method (bactericidal effect), strain A. Type of series: cell-based. The note with it: read-out: MIC value. As for the experimental part: (§1) The minimum inhibiting concentration (MIC) values of the above compounds and their two- or three-component combinations were determined in phenol-red - glucose broth (product of the Difco Co.) by using the broth-dilution method on the following bacterium strains isolated from chickens: […]

The test system of series [2] is Escherichia coli 1. The series is described as follows: MIC by broth-dilution method (bactericidal effect), strain B. Type of series: cell-based. The protocol:
as §1

In series [3] the test system is Escherichia coli 2. Kind of series: MIC by broth-dilution method (bactericidal effect), strain C. It is filed as cell-based. As for the experimental part:
as §1

The test system of series [4] is Salmonella typhimurium. Kind of series: MIC by broth-dilution method (bactericidal effect), strain D. It is filed as cell-based. The note with it: Salmonella enterica, read-out: MIC value. The protocol: (§2) The minimum inhibiting concentration (MIC) values of the above compounds and their two- or three-component combinations were determined in phenol-red - glucose broth (product of the Difco Co.) by using the broth-dilution method on the following bacterium strains isolated from chickens:
(§3) D: Salmonella typhimurium

Series [5] deals with Pasteurella multocida. Kind of series: MIC by broth-dilution method (bactericidal effect), strain E. Type of series: cell-based. The note with it: read-out: MIC value. As for the experimental part:
as §1

Series [6] concerns Aspergillus fumigatus. Kind of series: MIC by broth-dilution method (bactericidal effect), strain F. The note with it: read-out: MIC value. It is filed as cell-based. The protocol: as §1
The subject of series [7] is bacterium strains isolated from chickens. The series is described as follows: in vitro bacterial growth inhibition over the bacterium strains tested. Type of series: cell-based. Particulars: single compound. The protocol:
as §2, §3

The conditions of series [8]: in vivo.
The conditions of series [9]: in vivo; cited from earlier work.
The mark [10] stands for this setting: Escherichia coli, 1, read-out: MIC value.
Setting [11] is: Escherichia coli, 2, read-out: MIC value.
Setting [12] is: strain A: Staphylococcus aureus, phenol-red - glucose broth, bactericidal effect.
The mark [13] stands for this setting: strain B: Escherichia coli 1, phenol-red - glucose broth, bactericidal effect, read-out: MIC value.
The mark [14] stands for this setting: strain C: Escherichia coli 2, phenol-red - glucose broth, bactericidal effect, read-out: MIC value.
Where [15] appears, read: strain D: Salmonella typhimurium, phenol-red - glucose broth, bactericidal effect.
[16] abbreviates: strain E: Pasteurella multocida, phenol-red - glucose broth, bactericidal effect.
Where [17] appears, read: strain F: Aspergillus fumigatus, phenol-red - glucose broth, bactericidal effect.

SMILES strings stand for the structures. Like-named read-outs stand apart in the source and are kept apart here.

In the case of `O=S(=O)(O)O.Oc1cccc2cccnc12` [8-Hydroxyquinoline sulfate, 8-hydroxyquinoline sulfate], the MIC in series [1] (Staphylococcus aureus) was 5 µg/mL; in series [2] (setting [10]), 25 µg/mL; in [3] (setting [11]) it was 25 µg/mL; in series [4] (TYPHIMURIUM), 50 µg/mL; in series [5] (Pasteurella multocida), 1 µg/mL; in [6] (Aspergillus fumigatus), 25 µg/mL.
As to `Oc1cccc2cccnc12` [8-hydroxyquinoline], the “dose necessary for the in vitro antibacterial effect” value (“dose necessary” for short) in series [7] was “a relatively low dose”. In addition, the “required therapeutic blood level in the blood plasma” value in [8] was “cannot develop in the blood plasma”.
On to `COc1ccc(Cc2cnc(N)nc2N)cc1OC` [Diaveridine, 2,4-diamino-5-(3,4-dimethoxybenzyl)pyrimidine], for which the MIC came to 200 µg/mL in series [1] (Staphylococcus aureus); 200 µg/mL in [2] (setting [10]); 150 µg/mL in series [3] (setting [11]); 200 µg/mL in series [4] (TYPHIMURIUM); 150 µg/mL in series [5] (Pasteurella multocida); 200 µg/mL in series [6] (Aspergillus fumigatus). For the same compound, the “dose necessary” value in series [7] was “a very high dose”.
As for `COc1cc(NS(=O)(=O)c2ccc(N)cc2)nc(OC)n1` [Sulfadimethoxine, 2,6-dimethoxy-4-sulfanilamidopyrimidine], the MIC in series [1] (setting [12]), in series [2] (setting [13]), in series [3] (setting [14]), in [4] (setting [15]), in series [5] (setting [16]) and in series [6] (setting [17]) was 200 µg/mL each time. Also, the “toxicity compared with other sulfonamides” value in [9] is listed as “one of the least toxic ones”. The “toxicity; damage of haemopoietic organs and vessel walls” value in series [9] is “no damages of the haemopoietic organs and vessel walls”.
In the case of `COc1cc(Cc2cnc(N)nc2N)cc(OC)c1OC` [Trimetoprim, 2,4-diamino-5-(3,4,5-trimethoxybenzyl)pyrimidine], the MIC in series [1] (setting [12]) worked out at 200 µg/mL; in series [2] (setting [13]), 200 µg/mL; in series [3] (setting [14]), 200 µg/mL; in [4] (setting [15]) it was 200 µg/mL; in series [5] (setting [16]), 100 µg/mL; in series [6] (setting [17]), 200 µg/mL. Further, the “dose necessary” value in series [7] is reported as “a very high dose”.
In the case of `Nc1ccc(S(=O)(=O)Nc2cnc3ccccc3n2)cc1` [sulfachinoxaline, N-(2-chinoxalinyl)sulfanilamide], in [9], the “toxicity; damage of haemopoietic organs and vessel walls” value was “the haemopoietic organs and vessel walls of the animals are significantly injured”.

As a reminder, the MIC is the lowest concentration found to suppress growth.

These data come from US4871722A, “Synergistic veterinary composition and/or fodder premix and process for preparing same” (priority 1987, dated 1989).
